Two compounds from ChEMBL document CHEMBL4130414, “Asymmetric synthesis of novel triazole derivatives and their in vitro antiviral activity and mechanism of action” (Eur J Med Chem, 2017) can be followed below.

Each structure is given as a SMILES string. Converted amounts (≈) assume the structure as drawn. The source made the active and inactive calls. The rule behind the calls is not given here.

In general, CC50 refers to the concentration at which the toxic effect on the cells reaches its halfway point. In general, inhibition refers to the percentage by which the read-out fell short of the control. What is called EC50 is the concentration giving half of the maximal effect.

Data set [1] is described as follows: Cytotoxicity against human RD cells assessed as reduction in cell viability after 3 days by MTT assay. It counts as cell-based. On the technique in general: Tetrazolium assays rely on reduction of a dye to a coloured formazan, in cell work by metabolically active cells.
Data set [2] can be described thus: Selectivity index, ratio of CC50 for human HEP2 cells to EC50 for Coxsackievirus B3 (strain Nancy) infected in human HEP cells. The settings on record: HEp-2 cells, read-out: Ratio CC50/EC50. The format is toxicity, cell-based.
In data set [3] the test system is Coxsackievirus B3. The data set can be described thus: Antiviral activity against Coxsackievirus B3 (strain Nancy) infected in human HEP2 cells assessed as inhibition of virus-induced cytopathic effect by MTT dye based assay. The settings on record: for EC50: Enterovirus B, Nancy, HEp-2, read-out: EC50. The format is functional, organism-based. A general note: Cytopathic effects are the visible damage that an infection or toxin causes in cultured cells.

In data set [4] the test system is Enterovirus A71. The data set can be described thus: Antiviral activity against EV71 Xiangyang-Hubei-09 infected in human RD cells assessed as inhibition of virus-induced cytopathic effect at 16 ug/ml treated 1 hr post viral infection measured after 48 hrs by MTT dye based assay relative to control. The settings on record: Enterovirus A, Xiangyang-Hubei-09, RD. The format is functional.

Data set [5] is described as follows: Selectivity index, ratio of CC50 for human RD cells to EC50 for EV71 Xiangyang-Hubei-09 infected in human RD cells. The format is toxicity, cell-based. The note with it: read-out: Ratio CC50/EC50.
In data set [6] the test system is Enterovirus A71. The data set can be described thus: Antiviral activity against EV71 Xiangyang-Hubei-09 infected in human RD cells assessed as alteration in viral cell morphology at 16 ug/ml after 48 hrs. It counts as functional, organism-based.
Data set [7] deals with Enterovirus A71. The data set can be described thus: Antiviral activity against EV71 Xiangyang-Hubei-09 infected in human RD cells assessed as reduction in progeny viral yield at 16 ug/ml treated 1 hr post viral infection measured after 48 hrs. The format is functional.
For data set [8], the system named is Enterovirus A71. The data set can be described thus: Antiviral activity against EV71 Xiangyang-Hubei-09 infected in human RD cells assessed as inhibition of virus-induced cytopathic effect by MTT dye based assay. It counts as functional, organism-based. The settings on record: for EC50: Enterovirus A, Xiangyang-Hubei-09, RD, read-out: EC50.
The test system of data set [9] is Enterovirus A71. The data set can be described thus: Antiviral activity against EV71 Xiangyang-Hubei-09 infected in human RD cells at 16 ug/ml preincubated with RD cells for 2 hrs followed by washing with PBS and subsequent viral infection measured after 48 hrs. It counts as functional, organism-based.
A short description of data set [10]: Cytotoxicity against human Hep2 cells assessed as reduction in cell viability after 3 days by MTT assay. The settings on record: HEp-2 cells. The format is cell-based.
For data set [11], the system named is Enterovirus A71. The data set can be described thus: Antiviral activity against EV71 Xiangyang-Hubei-09 infected in human RD cells assessed as inhibition of virus-induced cytopathic effect at 16 ug/ml preincubated with RD cells for 2 hrs followed by washing with PBS and subsequent viral infection measured after 48 hrs by MTT assay. The format is functional, organism-based.

Data set [12] concerns Coxsackievirus B3. The data set can be described thus: Antiviral activity against Coxsackievirus B3 (strain Nancy) infected in human HEP2 cells assessed as inhibition of virus-induced cytopathic effect at 16 ug/ml after 48 hrs by MTT dye based assay. It counts as functional, organism-based.
Data set [13] deals with Enterovirus A71. The data set can be described thus: Antiviral activity against EV71 Xiangyang-Hubei-09 infected in human RD cells assessed as inhibition of viral adsorption at 16 ug/ml treated simultaneously with viral infection for 2 hrs followed by washing with PBS measured after 48 hrs. The format is functional, organism-based.

In the case of `CC[C@@H](CCn1cncn1)c1ccc(C)cc1`, the CC50 at 72 h amounted to 79.4 µg/mL (≈ 346 µM) in data set [1] and 69.9 µg/mL (≈ 305 µM) in data set [10]. Moreover, the selectivity ratio in data set [2] was determined as 11.7; in data set [5], 14.7. The inhibition entry with Coxsackievirus B3 [3] and in the data set on Enterovirus A71 [8] was “Dose-dependent effect” each time. The half-maximal effective concentration (EC50) came to 6 µg/mL (≈ 26.2 µM) in the data set on Coxsackievirus B3 [3] and 5.4 µg/mL (≈ 23.5 µM) in the data set on Enterovirus A71 [8]. For the same compound, in the data set on Enterovirus A71 [4], the inhibition at 16 µg/mL turned out to be 81%. Moreover, the inhibition result in the data set on Enterovirus A71 [6], in the data set on Coxsackievirus B3 [12] and in the data set with Enterovirus A71 [13] was “Active” each time. Also, the “log(activity)” value with Enterovirus A71 [7] was determined as 4.7. For the same compound, the inhibition entry in the data set with Enterovirus A71 [9] and in the data set with Enterovirus A71 [11] was “inactive” in each case.
With `C[C@H](CCn1cncn1)Cc1ccccc1`, the CC50 at 72 h in data set [1] was determined as 153 µg/mL (≈ 710 µM); in [10] it was 144 µg/mL (≈ 670 µM). The selectivity ratio worked out at 12.6 in data set [2] and 24.7 in data set [5]. Also, the inhibition result in the data set with Coxsackievirus B3 [3] and with Enterovirus A71 [8] was “Dose-dependent effect” each time. In addition, the results for the EC50 in the data set with Coxsackievirus B3 [3] and in the data set on Enterovirus A71 [8] were 11.4 µg/mL (≈ 52.9 µM) and 6.2 µg/mL (≈ 28.8 µM), respectively. Besides, the inhibition at 16 µg/mL in the data set with Enterovirus A71 [4] is 72%. Also, the inhibition result in the data set on Enterovirus A71 [6], in the data set on Coxsackievirus B3 [12] and with Enterovirus A71 [13] was “Active” throughout. Besides, the “log(activity)” value with Enterovirus A71 [7] was found to be 4.7. Further, the inhibition result in the data set on Enterovirus A71 [9] and in the data set with Enterovirus A71 [11] was “inactive” each time.
